Measured values taken from patent publication US7964607B2, “Pyrazolo[3,4-d]pyrimidine compounds” (Pfizer Inc., priority 2007, dated 2011).
Like-named read-outs stand apart in the source and are kept apart here.

Biological target: T1, human recombinant PDE9 enzyme (Homo sapiens, UniProt O76083)
T1 construct: made in house; host or cells: SF-9 insect cells
Assay: Phosphodiesterase 9 (PDE9) inhibitory activity, Scintillation Proximity (SPA) assay
Assay type: biochemical
Experimental: Phosphodiesterase 9 (PDE9) Inhibitory Activity The PDE9 assay was performed using the Phosphodiesterase Scintillation Proximity (SPA) assay (GE Healthcare Life Sciences). […] The human recombinant PDE9 enzyme was generated in SF-9 cells, the cell pellets were sonicated in buffer (20 mM TRIS, 2 mM benzamidine, 1 mM EDTA, 250 mM sucrose, 100 μM PMSF, pH 7.5 with HCl), centrifuged at 40,000×g for 20 min at 4° C. The supernatants were stored at −80° C. […] Test compounds were dissolved in DMSO, diluted in DI H2O and serially diluted in 20% DMSO/80% H2O, for a final concentration of 2% DMSO. For the assay the PDE9 was diluted with assay buffer such that 20% or less of the substrate was hydrolyzed to 5′GMP. Each assay well contained 10 μl of test compound or solvent, 40 μl of [^3H]CGMP and 50 μl of enzyme, background was determined by a high concentration of a PDE inhibitor. The assay was initiated with the addition of the enzyme and carried out at room temperature for 30 min. […] The plates were sealed, vortexed, allowed to set for >300 min, then counted in a Wallac TriLux MicroBeta LSC.

[1] = human recombinant PDE9 from SF-9 cells, 50 nM [3H]cGMP, room temperature, 30 min, additional compounds Ex. 115-228, read-out: G5678A (U):IC50
[2] = human recombinant PDE9 from SF-9 cells, 50 nM [3H]cGMP, room temperature, 30 min, Examples 3-114, read-out: G5678A (U): IC50

T1 sequence (O76083 whole entry): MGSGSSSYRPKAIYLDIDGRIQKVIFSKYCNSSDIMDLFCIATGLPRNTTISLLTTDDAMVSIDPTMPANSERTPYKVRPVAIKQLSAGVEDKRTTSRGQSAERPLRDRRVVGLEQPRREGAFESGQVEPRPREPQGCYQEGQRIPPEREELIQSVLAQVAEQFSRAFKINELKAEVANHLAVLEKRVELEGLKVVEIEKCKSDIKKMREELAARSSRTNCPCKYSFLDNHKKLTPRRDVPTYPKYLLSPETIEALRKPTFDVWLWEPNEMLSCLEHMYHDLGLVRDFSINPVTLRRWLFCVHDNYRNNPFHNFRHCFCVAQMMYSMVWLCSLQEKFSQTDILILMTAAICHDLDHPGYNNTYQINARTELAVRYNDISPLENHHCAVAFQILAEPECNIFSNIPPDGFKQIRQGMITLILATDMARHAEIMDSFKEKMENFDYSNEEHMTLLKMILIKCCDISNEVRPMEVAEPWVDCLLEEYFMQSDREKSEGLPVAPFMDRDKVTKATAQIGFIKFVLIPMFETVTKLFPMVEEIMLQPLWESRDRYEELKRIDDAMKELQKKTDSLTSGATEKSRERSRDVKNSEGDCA

Row | Structure (SMILES) | IC50 [1] [µM] | IC50 [2] [µM] | also measured
1 | Cc1ncc(CN2C[C@@H](C)[C@H](c3nc4c(cnn4C(C)C)c(=O)[nH]3)C2)cn1 [Example 41, 1-isopropyl-6-{(3S,4S)-4-methyl-1-[(2-methylpyrimidin-5-yl)methyl]pyrrolidin-3-yl}-1,5-dihydro-4H-pyrazolo[3,4-d]pyrimidin-4-one] |  | 0.0638 | 
2 | C[C@@H]1CN(Cc2cccc(F)c2)C[C@H]1c1nc2c(cnn2C2CCOCC2)c(=O)[nH]1 [Example 89, 6-[(3S,4S)-1-(3-fluorobenzyl)-4-methylpyrrolidin-3-yl]-1-(tetrahydro-2H-pyran-4-yl)-1,5-dihydro-4H-pyrazolo[3,4-d]pyrimidin-4-one] |  |  | IC50: 0.0017 µM
3 | C[C@@H]1CN(CCCC(F)(F)F)C[C@H]1c1nc2c(cnn2C2CCCC2)c(=O)[nH]1 (racemic) [Example 203, 1-cyclopentyl-6-{(3,4-trans)-4-methyl-1-(4,4,4-trifluorobutyl)pyrrolidin-3-yl]-1,5-dihydro-4H-pyrazolo[3,4-d]pyrimidin-4-one] | 0.0837 |  | 
4 | Cc1cc(CN2C[C@@H](C)[C@H](c3nc4c(cnn4C4CCOCC4)c(=O)[nH]3)C2)n(C)n1 [Example 82, 6-{(3S,4S)-1-[(1,3-dimethyl-1H-pyrazolo-5-yl)methyl]-4-methylpyrrolidin-3-yl}-1-(tetrahydro-2H-pyran-4-yl)-1,5-dihydro-4H-pyrazolo[3,4-d]pyrimidin-4-one] |  | 0.00518 | 
5 | Cc1cnc(CN2C[C@@H](C)[C@H](c3nc4c(cnn4C4CCOCC4)c(=O)[nH]3)C2)cn1 [Example 75, 6-{(3S,4S)-4-methyl-1-[(5-methylpyrazin-2-yl)methyl]pyrrolidin-3-yl}-1-(tetrahydro-2H-pyran-4-yl)-1,5-dihydro-4H-pyrazolo[3,4-d]pyrimidin-4-one] |  |  | IC50: 0.00546 µM
6 | O=c1[nH]c([C@@H]2CN(Cc3ccc4nccnc4c3)C[C@H]2C2CC2)nc2c1cnn2C1CCCC1 (racemic) [Example 56, 1-cyclopentyl-6-[(3,4-trans)-4-cyclopropyl-1-(quinoxalin-6-ylmethyl)pyrrolidin-3-yl]-1,5-dihydro-4H-pyrazolo[3,4-d]pyrimidin-4-one] |  | 0.00481 | 
7 | C[C@@H]1CN(Cc2ccc(F)cc2F)C[C@H]1c1nc2c(cnn2C2CCOCC2)c(=O)[nH]1 [Example 100, 6-[(3S,4S)-1-(2,4-difluorobenzyl)-4-methylpyrrolidin-3-yl]-1-(tetrahydro-2H-pyran-4-yl)-1,5-dihydro-4H-pyrazolo[3,4-d]pyrimidin-4-one] |  | 0.0227 | 
8 | CC[C@@H]1CN(Cc2ccccc2)C[C@H]1c1nc2c(cnn2C(C)C)c(=O)[nH]1 [Example 40, 6-[(3S,4S)-1-benzyl-4-ethylpyrrolidin-3-yl]-1-isopropyl-1,5-dihydro-4H-pyrazolo[3,4-d]pyrimidin-4-one] |  | 0.0445 | 
9 | COc1ccc(CN2C[C@@H](C)[C@H](c3nc4c(c(C)nn4C4CCOCC4)c(=O)[nH]3)C2)cn1 [Example 94, 6-{(3S,4S)-1-[(6-methoxypyridin-3yl)methyl]-4-methylpyrrolidin-3-yl}-3methyl-1-(tetrahyrdro-2H-pyran-4-yl)-1,5-dihydro-4H-pyrazolo[3,4-d]pyrimidin-4-one] |  | 0.0142 | 
10 | CC(C)n1ncc2c(=O)[nH]c([C@@H]3CN(Cc4ccnc5ncccc45)C[C@H]3C)nc21 [Example 66] |  | 0.0181 | 
11 | Cc1nccc(CN2C[C@@H](C)[C@H](c3nc4c(cnn4C4CCOCC4)c(=O)[nH]3)C2)n1 [Example 78, 6-{(3S,4S)-4-methyl-1-[(2-methylpyrimidin-4-yl)methyl]pyrrolidin-3-yl}-1-(tetrahydro-2H-pyran-4-yl)-1,5-dihydro-4H-pyrazolo[3,4-d]pyrimidin-4-one] |  | 0.00435 | 
12 | CC[C@@H]1CN(Cc2cnc(C)nc2)C[C@H]1c1nc2c(cnn2C(C)C)c(=O)[nH]1 (relative stereo) [Example 59, 6-{(3,4-trans)-4-ethyl-1-[(2-methylpyrimidin-5-yl)methyl]pyrrolidin-3-yl}-1-isopropyl-1,5-dihydro-4H-pyrazolo[3,4-d]pyrimidin-4-one] |  | 0.00737 | 

Continued, in another order:

Row | IC50 [1] [µM] | IC50 [2] [µM] | Structure (SMILES) | also measured
13 | 0.187 |  | COc1c(C)cnc(CN2C[C@@H](C)[C@H](c3nc4c(cnn4C4CCCC4)c(=O)[nH]3)C2)c1C (racemic) [Example 196, 1-cyclopentyl-6-{(3,4-trans)-1-[(4-methoxy-3,5-dimethylpyridin-2-yl)methyl]-4-methylpyrrolidin-3-yl}-1,5-dihydro-4H-pyrazolo[3,4-d]pyrimidin-4-one] | 
14 | 0.0353 |  | C[C@@H]1CN(Cc2nc3ccccc3n2C)C[C@H]1c1nc2c(cnn2C2CCCC2)c(=O)[nH]1 (racemic) [Example 199, 1-cyclopentyl-6-{(3,4-trans)-4-methyl-1-[(1-methyl-1H-benzimidazol-2-yl)methyl]pyrrolidin-3-yl}-1,5-dihydro-4H-pyrazolo[3,4-d]pyrimidin-4-one] | 
15 | 0.0398 |  | COc1ccccc1CN1C[C@@H](C)[C@H](c2nc3c(cnn3C3CCCC3)c(=O)[nH]2)C1 (racemic) [Example 211, 1-cyclopentyl-6-[(3,4-trans)-1-(2-methoxybenzyl)-4-methylpyrrolidin-3-yl]-1,5-dihydro-4H-pyrazolo[3,4-d]pyrimidin-4-one] | 
16 | 0.0472 |  | C[C@@H]1CN(Cc2coc(-c3ccccc3)n2)C[C@H]1c1nc2c(cnn2C2CCCC2)c(=O)[nH]1 (racemic) [Example 179, 1-cyclopentyl-6-{(3,4-trans)-4-methyl-1-[(2-phenyl-1,3-oxazol-4-yl)methyl]pyrrolidin-3-yl}-1,5-dihydro-4H-pyrazolo[3,4-d]pyrimidin-4-one] | 
17 |  | 0.0401 | C[C@@H]1CN(Cc2ccccc2)C[C@H]1c1nc2c(cnn2C2CCC2)c(=O)[nH]1 (racemic) [Example 72, 6-[(3,4-trans)-1-benzyl-4-methylpyrrolidin-3-yl]-1-cyclobutyl-1,5-dihydro-4H-pyrazolo[3,4-d]pyrimidin-4-one] | 
18 | 0.0709 |  | C[C@@H]1CN(Cc2cc(Cl)cc(Cl)c2)C[C@H]1c1nc2c(cnn2C2CCCC2)c(=O)[nH]1 (racemic) [Example 187, 1-cyclopentyl-6-[(3,4-trans)-1-(3,5-dichlorobenzyl)-4-methylpyrrolidin-3-yl]-1,5-dihydro-4H-pyrazolo[3,4-d]pyrimidin-4-one] | 
19 | 0.0156 |  | C[C@@H]1CN(Cc2ccccc2F)C[C@H]1c1nc2c(cnn2C2CCCC2)c(=O)[nH]1 (racemic) [Example 218, 1-cyclopentyl-6-[(3,4-trans)-1-(2-fluorobenzyl)-4-methylpyrrolidin-3-yl]-1,5-dihydro-4H-pyrazolo[3,4-d]pyrimidin-4-one] | 
20 | 0.0838 |  | Cc1ccccc1CN1C[C@@H](C)[C@H](c2nc3c(cnn3C3CCCC3)c(=O)[nH]2)C1 (relative stereo) [Example 180, 1-cyclopentyl-6-[(3,4-trans)-4-methyl-1-(2-methylbenzyl)pyrrolidin-3-yl]-1,5-dihydro-4H-pyrazolo[3,4-d]pyrimidin-4-one] | 
21 |  | 0.0116 | C[C@@H]1CN(Cc2cccnc2)C[C@H]1c1nc2c(cnn2C2CCCC2)c(=O)[nH]1 (racemic) [Example 7, 1-cyclopentyl-6-[(3,4-trans)-4-methyl-1-(pyridin-3-ylmethyl)pyrrolidin-3-yl]-1,5-dihydro-4H-pyrazolo[3,4-d]pyrimidin-4-one] | 
22 |  | 0.00907 | COc1ccc(CN2C[C@@H](C)[C@H](c3nc4c(cnn4C4CCCC4)c(=O)[nH]3)C2)cn1 (racemic) [Example 25, 1-cyclopentyl-6-{(3,4-trans)-1-[(6-methoxypyridin-3-yl)methyl]-4-methylpyrrolidin-3-yl}-1,5-dihydro-4H-pyrazolo[3,4-d]pyrimidin-4-one] | 
23 | 0.0271 |  | COc1ccc(CN2C[C@@H](C)[C@H](c3nc4c(cnn4C4CCCC4)c(=O)[nH]3)C2)cc1OC (racemic) [Example 176, 1-cyclopentyl-6-[(3,4-trans)-1-(3,4-dimethoxybenzyl)-4-methylpyrrolidin-3-yl]-1,5-dihydro-4H-pyrazolo[3,4-d]pyrimidin-4-one] | 
24 | 0.117 |  | Cc1ccc(CN2C[C@@H](C)[C@H](c3nc4c(cnn4C4CCCC4)c(=O)[nH]3)C2)c(C)c1 (racemic) [Example 151, 1-cyclopentyl-6-[(3,4-trans)-1-(2,4-dimethylbenzyl)-4-methylpyrrolidin-3-yl]-1,5-dihydro-4H-pyrazolo[3,4-d]pyrimidin-4-one] | 
25 | 0.0422 |  | Cc1cnc(CN2C[C@@H](C)[C@H](c3nc4c(cnn4C4CCCC4)c(=O)[nH]3)C2)cn1 (racemic) [Example 177, 1-cyclopentyl-6-{(3,4-trans)-4-methyl-1-[(5-methylpyrazin-2-yl)methyl]pyrrolidin-3-yl)-1,5-dihydro-4H-pyrazolo[3,4-d]pyrimidin-4-one] | 
26 | 0.00742 |  | C[C@@H]1CN(Cc2cc(F)cc(F)c2)C[C@H]1c1nc2c(cnn2C2CCCC2)c(=O)[nH]1 (racemic) [Example 227, 1-cyclopentyl-6-[(3,4-trans)-1-(3,5-difluorobenzyl)-4-methylpyrrolidin-3-yl]-1,5-dihydro-4H-pyrazolo[3,4-d]pyrimidin-4-one] | 
27 | 0.0709 |  | COc1ccc(F)cc1CN1C[C@@H](C)[C@H](c2nc3c(cnn3C3CCCC3)c(=O)[nH]2)C1 (racemic) [Example 128, 1-cyclopentyl-6-[(3,4-trans)-1-(5-fluoro-2-methoxybenzyl)-4-methylpyrrolidin-3-yl]-1,5-dihydro-4H-pyrazolo[3,4-d]pyrimidin-4-one] | 
